Results published in patent US8580769B2, “Treatment of obesity, metabolic syndrome, and diabetes with protein kinase C inhibitors” (The United States of America as represented by the …, priority 2011, dated 2013).

What was measured:
human hepatocytes = assay: mRNA expression of lipogenic, inflammatory and glucogenic markers in human hepatocytes (RT-PCR); format: cell-based; settings: for expression of G6 Pase / expression of PEPCK: hepatocytes of non-diabetic and T2DM humans, inhibitor alone or with insulin; for expression of ACC / expression of FAS / expression of IL-1β / expression of SREBP-1c / expression of TNF-α: hepatocytes of non-diabetic and/or T2DM humans
Method: After thawing, the hepatocytes were distributed (approximately 10^6 cells per 100 mm plate) and incubated approximately 16 hours overnight in Dulbecco's minimal essential medium containing 5% fetal calf serum, 100 units/ml sodium-penicillin, 100 μg/ml streptomycin-sulfate, 1 μM insulin and 2 μM dexamethasone. After washing, cells were incubated first for 2 hours in William's E medium (Sigma-Aldrich, St. Louis, Mo., catalog no. W1878) containing GLUTAMAX™ (Gibco/Invitrogen, Carlsbad, Calif.), 100 units/ml sodium-penicillin, 100 μg/ml streptomycin-sulfate, 10 μM insulin, 100 nM dexamethasone, and then for 2 hours in William's E medium containing 100 units/ml sodium penicillin, 100 μg/ml streptomycin-sulfate, 100 nM dexamethasone, 0.25 mg/ml transferrin, 0.25 μg/ml sodium selenite and 10 μM insulin. Cells were then washed and incubated for 3 hours in the same medium, but lacking insulin. Where indicated, an aPKC inhibitor was then added and incubation was continued for 30 min, after which, cells were treated either for 15 min with or without 100 nM insulin for acute signaling studies, […] After incubation, cells were sonicated in homogenizing buffer.
mRNA Measurements: As previously described (Sajan et al., J. Lipid Res. 50:1133-1145, 2009; Sajan et al., Diabetologia 52:1197-1207, 2009; Farese et al., J. Clin. Invest. 117:2289-2301, 2007), tissues were added to TRIZOL® reagent (Invitrogen) and RNA was extracted and purified with the RNEASY® Mini-Kit (Qiagen; Valencia, Calif.) and RNAase-free DNAase set (Qiagen) as per kit instructions, quantified by measuring A260/A280, further checked for purity by electrophoresis on 1.2% agarose gels, and mRNA quantified by quantitative real-time reverse transcriptase-polymerase chain reaction (RT-PCR). Reverse transcription was accomplished with TAQMAN® reverse transcription reagent from Applied Biosystems (Foster City, Calif., USA). mRNAs were measured with a SYBR® Green kit (Applied Biosystems) using the nucleotide primers shown in Table 1.

aPKC = assay: tissue aPKC activity in Het-MλKO mice; format: in vivo, mouse; settings: for aPKC activation in adipose tissue / aPKC activation in muscle: 7-day treatment s.c. (ATM 60 mg/kg; ICAPP 0.4 mg/kg)
Description: In Vivo Mouse Studies: Male wild type (WT) and heterozygous muscle-specific PKC-λ knockout (Het-MλKO) mice were generated as described (Farese et al., J. Clin. Invest. 117:2289-2301, 2007) and used at 6-12 months of age, when the O/MS/T2DM phenotype in MλKO mice is well-developed. Mice were housed in a temperature-controlled environment with alternating 12-hour light and dark cycles, and fed ad libitum with standard chow (Harlan Teklad 20/18 with 5% fat, (10% of calories from fat)). All experimental procedures in mice were approved by the Institutional Animal Care and Use Committees of the Roskamp Institute and the University of South Florida College of Medicine, and the James A. Haley Veterans Administration Medical Center Research and Development Committee, Tampa, Fla.
(ICAPP; prepared by Southern Research, Birmingham, Ala.) at 0.4 mg/kg body weight. On the morning of the eighth day of inhibitor treatment, mice were injected intraperitoneally (IP) with 0.9% saline or saline containing 1 U insulin/kg body weight 15 minutes before sacrifice, an optimal time for studies of insulin stimulation of aPKC and Akt in liver, muscle and adipose tissues (Standaert et al., J. Biol. Chem. 279:24929-24934, 2004; Sajan et al., J. Lipid Res. 50:1133-1145, 2009; Sajan et al., Diabetologia 52:1197-1207, 2009; Farese et al., J. Clin. Invest. 117:2289-2301, 2007). After killing, blood, liver, quadriceps muscle and abdominal adipose tissues were rapidly removed and homogenized in buffer with a POLYTRON® homogenizer.
Tissue and Immunoprecipitate Preparations: As previously described (Standaert et al., J. Biol. Chem. 279:24929-24934, 2004; Sajan et al., J. Lipid Res. 50:1133-1145, 2009; Sajan et al., Diabetologia 52:1197-1207, 2009; Farese et al., J. Clin. Invest. 117:2289-2301, 2007) hepatocytes and tissues from in vivo experiments were homogenized in ice-cold buffer containing 0.25 M sucrose, 20 mM Tris/HCl (pH 7.5), 2 mM EGTA, 2 mM EDTA, 1 mM phenylmethylsulfonyl fluoride (PMSF), 20 μg/ml leupeptin, 10 μg/ml aprotinin, 2 mM Na4P2O7, 2 mM Na3VO4, 2 mM NaF, and 1 μM microcystin. After centrifugation for 10 minutes at 700×g to remove unbroken cells, debris, nuclei, and floating fat, cell lysates were stored at −70° C. After addition of 1% TRITON® X-100, 0.6% Nonidet and 150 mM NaCl, lysates were cleared of insoluble materials by low-speed centrifugation and subsequently immunoprecipitated with antibodies that target: (a) aPKCs (rabbit polyclonal antiserum from Santa Cruz Biotechnologies (Santa Cruz, Calif.) that recognizes C-termini of both PKC-λ and PKC-ζ); and (b) Akt2 (Upstate Cell Signaling/Millipore, Billerica, Mass.). Immunoprecipitates were collected on Sepharose-AG beads (Santa Cruz Biotechnologies).
aPKCι Assays: aPKC enzyme activity was measured as previously described (Standaert et al., J. Biol. Chem. 279:24929-24934, 2004; Sajan et al., J. Lipid Res. 50:1133-1145, 2009; Sajan et al., Diabetologia 52:1197-1207, 2009; Farese et al., J. Clin. Invest. 117:2289-2301, 2007). […] After incubation, ^32P-labeled substrate was trapped on P-81 filter paper and counted. This assay reflects the specific activity of a constant amount of aPKC (even in Het-MλKO mice) that is immunoprecipitated by supplier-prescribed amounts of antiserum (Farese et al., J. Clin. Invest. 117:2289-2301, 2007; Beeson et al., Diabetes 52:1926-1934, 2003).

[1] = non-diabetic human hepatocytes, 6 hours, 100 nM insulin, 100 nM ICAP
[2] = Het-MλKO mice, s.c. once daily (ICAPP 0.4 mg/kg 7 days; ICAP 0.5 mg/kg 8 days)

| SMILES | expression of G6 Pase (human hepatocytes) | expression of PEPCK (human hepatocytes) | expression of ACC (human hepatocytes) | expression of FAS (human hepatocytes) | expression of IL-1β (human hepatocytes) | expression of SREBP-1c (human hepatocytes) | expression of TNF-α (human hepatocytes) | aPKC activation in adipose tissue (aPKC; Het-MλKO mice) | aPKC activation in muscle (aPKC; Het-MλKO mice) | effects on insulin-provoked aPKC activity and mRNA levels in hepatocytes of diabetic humans (human hepatocytes; hepatocytes of diabetic humans) | insulin-provoked increase in ACC mRNA (human hepatocytes; [1]) | insulin-provoked increase in FAS mRNA (human hepatocytes; [1]) | insulin-provoked increase in IL-1β mRNA (human hepatocytes; [1]) | insulin-provoked increase in SREBP-1c mRNA (human hepatocytes; [1]) | insulin-provoked increase in TNF-α mRNA (human hepatocytes; [1]) | hepatic aPKC activity (aPKC; [2]) | hepatic aPKC activity (aPKC; ICAP-treated Mλ-Het KO mice (n = 12), 0.5 mg/kg body weight/day x 8 days s.c., mean ± SEM) [cpm/immunoppt] |
| --- | --- | --- | --- | --- | --- | --- | --- | --- | --- | --- | --- | --- | --- | --- | --- | --- | --- |
| O=C([O-])CC([S][Au])C(=O)[O-] (stereo not drawn) [ATM, aurothiomalate, reference compound] | insulin-like, or enhanced insulin, effects | insulin-like, or enhanced insulin, effects | diminished | diminished | diminished | diminished | diminished | increased significantly | increased significantly |  |  |  |  |  |  |  |  |
| NC(=O)c1ncn([C@@H]2C[C@H](CO)[C@@H](O)[C@H]2O)c1N [ICAP, 1H-imidazole-4-carboxamide 5-amino-1-[2,3-dihydroxy-4-[hydroxymethyl]cyclopentyl]-[1R-(1α,2β,3β,4α)]] |  |  |  |  |  |  |  |  |  | Comparable results | inhibited | inhibited | inhibited | inhibited | inhibited | inhibited | 1374 ± 128 |
| NC(=O)c1ncn([C@@H]2C[C@H](COP(=O)(O)O)[C@@H](O)[C@H]2O)c1N [ICAPP, 1H-imidazole-4-carboxamide, 5-amino-1-[2,3-dihydroxy-4-[(phosphonooxy)methyl]cyclopentyl]-[1R-(1α,2β,3β,4α)]] | insulin-like, or enhanced insulin, effects | insulin-like, or enhanced insulin, effects | diminished | diminished | diminished | diminished | diminished | increased significantly or trended upward | increased significantly or trended upward |  |  |  |  |  |  | diminished |  |
